{
  "source": "patent US9084765B2",
  "about": "“Use of amisulpride as an anti-emetic” (Acacia Pharma Limited, priority 2010, dated 2015)",
  "key": {"[1]": {"tested_on": "ferrets challenged with apomorphine", "assay": "Apomorphine-induced emesis in ferrets", "assay_type": "in vivo, ferret", "details": "2 hour observation", "experimental": "(§1) Amisulpride, white powder, was dissolved in dimethylsulfoxide and then diluted in physiological saline. For vehicle control, physiological saline was used for s,c, administration (apomorphine experiments) and 8.3% DMSO in physiological saline was used for i.v. administration (morphine, cisplatin). Apomorphine hydrochloride hemihydrates, white powder, was dissolved in physiological saline. The method used to test antiemetic activity preclinically follows that described by Gardner et al. (Brit. J. Pharmacol., 116: 3158-3163, 1995) and uses ferrets. Sixty minutes before administration of the test substance, ferrets are placed in individual stainless steel cages (40×50×34 cm) with a grid floor. Then, the animals are challenged with apomorphine (0.25 mg/kg s.c.), morphine (0.4 mg/kg i.p.) or cisplatin (10 mg/kg i.p.) and immediately observed over at least a 2-hour period. Parameters recorded include: number of ferrets showing retches and vomits; latency to first retching; latency to first vomiting; number of retches; vomiting (number of vomits); number of emesis periods and mean duration of emesis periods. Retching is defined as a rhythmic respiratory movement against a closed glottis, while vomiting is defined as a forced expulsion of upper gastrointestinal contents. […]"}, "[2]": {"tested_on": "ferrets challenged with morphine", "assay": "Morphine-induced emesis in ferrets", "assay_type": "in vivo, ferret", "experimental": "as §1, with “Morphine hydrochloride,” for “Apomorphine hydrochloride hemihydrates,”"}, "[3]": {"tested_on": "ferrets challenged with cisplatin", "assay": "Cisplatin-induced emesis in ferrets", "assay_type": "in vivo, ferret", "experimental": "Amisulpride, white powder, was dissolved in dimethylsulfoxide and then diluted in physiological saline. For vehicle control, physiological saline was used for s,c, administration (apomorphine experiments) and 8.3% DMSO in physiological saline was used for i.v. administration (morphine, cisplatin). […] Cisplatinum II diamine dichloride, yellow powder, was dispersed in 0.2% hydroxymethylcellulose in physiological saline. The method used to test antiemetic activity preclinically follows that described by Gardner et al. (Brit. J. Pharmacol., 116: 3158-3163, 1995) and uses ferrets. Sixty minutes before administration of the test substance, ferrets are placed in individual stainless steel cages (40×50×34 cm) with a grid floor. Then, the animals are challenged with apomorphine (0.25 mg/kg s.c.), morphine (0.4 mg/kg i.p.) or cisplatin (10 mg/kg i.p.) and immediately observed over at least a 2-hour period. Parameters recorded include: number of ferrets showing retches and vomits; latency to first retching; latency to first vomiting; number of retches; vomiting (number of vomits); number of emesis periods and mean duration of emesis periods. Retching is defined as a rhythmic respiratory movement against a closed glottis, while vomiting is defined as a forced expulsion of upper gastrointestinal contents. […]"}, "[4]": {"details": "reported in the UKPAR (Special Warnings and Precautions for Use); cited from earlier work"}, "[5]": {"tested_on": "apomorphine-induced vomiting in the dog", "details": "reported in U.S. Pat. No. 4,294,828; cited from earlier work"}},
  "note": "Entries after “also recorded” stand apart in the source; their conditions may differ.",
  "data": [
    {"smiles": "CCN1CCCC1CNC(=O)c1cc(S(=O)(=O)CC)c(N)cc1OC", "note": "(centres unmarked) [Amisulpride]", "values": [
      {"measurement": "effect on apomorphine emesis", "setting": "[1]; amisulpride 10 μg/kg s.c.", "result": "totally inhibited"},
      {"measurement": "effect on apomorphine emesis", "setting": "[1]; amisulpride 100 μg/kg s.c.", "result": "totally inhibited"},
      {"measurement": "incidence of vomits", "setting": "[2]; amisulpride 3 mg/kg i.v. before morphine 0.4 mg/kg i.p.", "result": "abolished"},
      {"measurement": "effect on emetic effects induced by morphine", "setting": "[2]; i.v. 5 minutes before morphine, 2 hour observation, versus vehicle control", "result": "reduces the emetic effects induced by morphine, in dose-dependent manner"},
      {"measurement": "efficacy compared with droperidol", "setting": "[3]; amisulpride 0.6 mg/kg (one animal excluded) and 2 mg/kg versus droperidol 3 mg/kg given 5 minutes before cisplatin", "result": "better than droperidol at 3 mg/kg; also recorded: more effective than droperidol at 3 mg/kg"},
      {"measurement": "effect on emetic effects of cisplatin", "setting": "[3]; i.v. before cisplatin, 72 hour period, versus vehicle control", "result": "reduces the emetic effects of cisplatin, in dose-dependent manner"},
      {"measurement": "prolongation of the QT interval", "setting": "[4]", "result": "induces a dose dependent prolongation of the QT interval"},
      {"measurement": "apomorphine-induced vomiting", "setting": "[5]", "result": "inhibit apomorphine-induced vomiting in the dog"}
    ]}
  ]
}
